Tests used:
[1] = absorption spectrum of methanol solutions; type: physicochemical; conditions: for ε (molar absorptivity): at λmax; for λmax (MeOH): maximum absorption wavelength
Experimental: Absorption spectrum of methanol solutions of the compounds used in the present invention was determined.

[2] = system: normal monkey kidney epithelial cell line CV-1; experiment: colony formation, normal monkey kidney epithelial cell line CV-1 (24 h exposure, 7-10 days incubation); type: cell-based; conditions: Primates, CV-1 cells
Experimental: (§1) CX-1 cells (2,000 cells/well) and CV-1 cells (1,000 cells/well) were plated in 24-well plastic culture plates. […] The control received culture media only. Cells were treated with compounds of General Formulas (I) to (III) at 37° C. for 24 hours. After rinsing with fresh culture medium three times, the cells were further incubated at 37° C. for 7 to 10 days. Cell colonies were fixed and stained with 2% crystal violet in 70% ethanol for 10 minutes and rinsed in water. […] The selectivity is defined as the ratio of IC50 for CV-1 and IC50 for CX-1.

KB cell = experiment: colony formation, KB cell (protocol of Example 1); conditions: for IC50: Homo sapiens, KB, read-out: KB Cell (IC50); for Selectivity: Table II, ratio of IC50 for CV-1 and IC50 for KB cell
Experimental: as §1

[3] = system: human colon carcinoma cell line CX-1; experiment: colony formation, human colon carcinoma cell line CX-1 (24 h exposure, 7-10 days incubation); type: cell-based; conditions: Table I; for IC50: Homo sapiens, CX-1 cells, 24 h treatment, colony number reduced to 50% of control; for Selectivity: ratio of IC50 for CV-1 and IC50 for CX-1
Experimental: as §1

[4] = system: LOX, a human melanoma cell line; experiment: nude mice bearing human melanoma (LOX, i.p.), survival; type: in vivo, human (LOX) in male athymic Swiss nu/nu mouse; conditions: mean survival treated / untreated control
Experimental: Nude Mice Bearing Human Melanoma as a Model System
LOX, a human melanoma cell line, grown subcutaneously in nude mice was excised, trypsinized to yield a single cell suspension using a metal grid with a […]. Red blood cells were lysed by incubation with 0.17 molar ammonium chloride at 4° C. for 20 minutes. Five million viable trypan blue negative cells made up in 0.1 ml of Dulbecco modified Eagles' medium (DME) were injected into the peritoneal cavity of a male athymic Swiss nu/nu mouse. The control group and each treatment group consisted of 5 to 10 mice. Treatment was commenced the following day by intraperitoneal injection.
Ten control mice received 0.25 ml of 2% dextrose on those days the treated groups were injected with the compounds of this invention. The compounds used in this invention which were tested are listed in Table III below and the results obtained are also shown in Table III. T/C is the ratio, expressed as a percentage of the mean survival age of the treated group to the mean survival age of the untreated control group.

normal nude mice = experiment: toxicity to normal nude mice
[5] = Table I, 24 h treatment, colony number reduced to 50% of control
[6] = Table II, protocol of Example 1

| SMILES | ε (molar absorptivity) [1] | λmax (MeOH) [1] [nm] | IC50 (KB cell) [µg/mL] | Selectivity (KB cell) | Selectivity [3] | further results |
| --- | --- | --- | --- | --- | --- | --- |
| CCN1C(=O)C(=CC=C2Sc3ccc4ccccc4c3N2CC)SC1=Nc1scc[n+]1C [II-7] |  |  | 0.15 | 200 | 133 | IC50 [2, 5]: 4 µg/mL; IC50 [3]: 0.03 µg/mL |
| CN1C(=O)C(=CC=C2Sc3ccccc3N2C)SC1=Nc1scc[n+]1C [II-24] |  |  | 0.078 | 336 |  | IC50 [2, 6]: 26.2 µg/mL |
| CCN1C(=CC=Cc2sc3c4ccccc4ccc3[n+]2CC)Sc2c1ccc1ccccc21 [B, reference compound] |  |  |  |  | < 2 |  |
| CCN1C(=CC=CC=Cc2sc3ccccc3[n+]2CC)Oc2ccccc21 [F, reference compound] |  |  |  |  | 50 |  |
| CCN1C(=O)C(=C2Sc3ccccc3N2C)SC1=Nc1scc[n+]1C [Compound I-10] | 3.55 × 10^4 | 444 |  |  | > 250 | IC50 [2, 5]: > 20 µg/mL; T/C (%) ([4]; 15 mg/kg i.p. on day 1, 2, 3, 6, 8, 10): 173%; IC50 [3]: 0.08 µg/mL |
| CCN1C(=CC=C(Cl)C=Cc2sc3ccc4ccccc4c3[n+]2CC)Sc2ccc3ccccc3c21 [H, reference compound] |  |  |  |  | 2.5 |  |
| CCN1C(=O)C(=C2C=CN(C)c3ccccc32)SC1=Nc1scc[n+]1CC [Compound I-54] |  |  | 0.27 | 111 |  | T/C (%) ([4]; 6 mg/kg i.p. on day 1, 3, 4, 5, 6, 8): 169% |
| CCN1C(=CC(C)=Cc2sc3c4ccccc4ccc3[n+]2CC)Sc2c1ccc1ccccc21 [G, reference compound] |  |  |  |  | 5 |  |
| CCCN1C(=CC=CC=Cc2oc3ccccc3[n+]2CCC)Oc2ccccc21 [E, reference compound] |  |  |  |  | 12 |  |
| CCN1C(=O)C(=CC=C2C=Cc3ccccc3N2CC)SC1=Nc1ccc2ccccc2[n+]1C [II-9] | 5.80 × 10^4 | 582 | 0.15 | 200 |  |  |
| CCN1C(=O)C(=C2Sc3c(ccc4ccccc34)N2C)SC1=Nc1cccc[n+]1CC [Compound I-25] |  |  | 0.17 | 176 | 100 | IC50 [2, 5]: 10 µg/mL; IC50 [3]: 0.1 µg/mL |
| CCN1C(=O)C(=C2Sc3ccc(C)cc3N2C)SC1=Nc1sc2ccccc2[n+]1CC [Compound I-19] |  |  |  |  | 120 | IC50 [2, 5]: 6 µg/mL; IC50 [3]: 0.05 µg/mL |
| CCN1C(=CC=c2sc(=Cc3sc4c([n+]3CC)CCCC4)n(CC)c2=O)Oc2ccccc21 [Compound C, reference compound] |  |  |  |  | 50 | toxicity to normal nude mice (normal nude mice): less toxic to normal nude mice |

More lines, main results first:

| ε (molar absorptivity) [1] | λmax (MeOH) [1] [nm] | IC50 (KB cell) [µg/mL] | SMILES | Selectivity (KB cell) | Selectivity [3] | further results |
| --- | --- | --- | --- | --- | --- | --- |
| 9.44 × 10^4 | 593 |  | CCn1c(=Cc2sc3ccccc3[n+]2CC)sc(=CC=C2Sc3ccccc3N2C)c1=O [Compound S-2, reference compound] |  |  |  |
| 7.49 × 10^4 | 500 |  | CCn1c(=Cc2sc3ccccc3[n+]2CC)sc(=C2Sc3ccccc3N2C)c1=O [Compound S-1, reference compound] |  |  |  |
| 4.45 × 10^4 | 460 |  | CCN1C(=O)C(=C2Sc3ccc(OC)cc3N2C)SC1=Nc1sc2ccccc2[n+]1CC [Compound I-5] |  |  |  |
| 4.17 × 10^4 | 462 |  | CCN1C(=O)C(=C2Sc3ccccc3N2C)SC1=Nc1sc2cc(Cl)ccc2[n+]1CC [Compound I-17] |  |  |  |
| 3.37 × 10^4 | 435 |  | CCN1C(=O)C(=C2Sc3ccccc3N2C)SC1=Nc1cccc[n+]1CC [Compound I-7] |  |  |  |
|  |  | 0.39 | CCN1C(=O)C(=C2C=Cc3ccccc3N2C)SC1=Nc1cccc[n+]1CC [Compound I-33] | 77 |  |  |
| 7.58 × 10^4 | 564 | 0.15 | CC[n+]1c(N=C2SC(=CC=C3Sc4ccccc4N3C)C(=O)N2C)sc2ccccc21 [II-4] | 196 |  | IC50 [2, 6]: 29.4 µg/mL |
| 4.74 × 10^4 | 466 | 0.15 | CCN1C(=O)C(=C2Sc3ccccc3N2C)SC1=Nc1sc2cc(OC)ccc2[n+]1CC [Compound I-18] | 177 |  | IC50 [2, 6]: 26.5 µg/mL |
| 4.87 × 10^4 | 460 |  | CCN1C(=O)C(=C2Sc3ccccc3N2C)SC1=Nc1sc2ccccc2[n+]1CC [Compound I-9] |  |  |  |
| 5.78 × 10^4 | 520 |  | CCN1CCSC1=CC=C1SC(=Nc2sc3ccccc3[n+]2CC)N(CC)C1=O [II-2] |  |  |  |
| 4.50 × 10^4 | 467 |  | CCN1C(=O)C(=C2Sc3ccc(OC)cc3N2C)SC1=Nc1sc2ccccc2[n+]1CC [Compound I-8] |  |  |  |
|  |  | 0.037 | CCN1C(=O)C(=C2Sc3ccc4ccccc4c3N2C)SC1=Nc1scc[n+]1C [Compound I-47] | 686 |  | IC50 [2, 6]: 25.4 µg/mL; T/C (%) ([4]; 10 mg/kg i.p. on day 1, 3, 5): 207% |
|  |  | 0.083 | CCN1C(=O)C(=C2Sc3ccccc3N2C)SC1=Nc1scc[n+]1CC [Compound I-46] | 330 |  | IC50 [2, 6]: 27.4 µg/mL; T/C (%) ([4]; 10 mg/kg i.p. on day 1, 3, 4, 5, 6, 8): 175% |
| 8.31 × 10^4 | 570 |  | CCN1C(C)=CSC1=CC=C1SC(=Nc2sc3cc(OC)ccc3[n+]2CC)N(CC)C1=O [Compound II-3] |  |  |  |
| 3.52 × 10^4 | 434 |  | CCN1C(=O)C(=C2Sc3ccccc3N2C)SC1=Nc1cccc[n+]1CC [Compound I-6, 1-ethyl-2-{[3-ethyl-5-(3-methylbenzothiazolin-2-ylidene)]-4-oxothiazolin-2-ylideneamino} pyridinium iodide] |  |  |  |
